Experimental data as given in patent US5604234A, “Substituted thiol macrolactam immunomodulators” (Abbott Laboratories, priority 1995, dated 1997).

Test system: human mixed lymphocyte reaction (MLR)
Assay: human mixed lymphocyte reaction (MLR), serum free variation
Format: cell-based
Settings: Homo sapiens, Lymphocyte, serum-free medium AIM V, Table 3
Method: In vitro Assay of Biological Activity (Serum Free MLR)
The in viitro immunosuppressant activity of the compounds of the present invention can also be determined using a variation of the human mixed lymphocyte reaction (MLR) assay described by Kino, T. et al. in Transplantation Proceedings, XIX(5):36-39, Suppl. 6 (1987). In this assay, the cell culture was performed in a serum-free medium, AIM V (GibcoBRL Life Technologies, Grand Island, N.Y.), instead of the usual RPMI 1640 plus 10% heat-inactivated fetal bovine serum medium. The final cell concentrations of the responder and stimulator peripheral blood mononuclear cells were, respectively, 5×10^5/mL and 2×10^6/mL of cells pooled from four donors.

Row | Structure (SMILES) | IC50 [nM]
1 | CC[C@@H]1/C=C(\C)C[C@H](C)C[C@H](OC)[C@H]2O[C@@](O)(C(=O)C(=O)N3CCCC[C@H]3C(=O)O[C@H](/C(C)=C/[C@@H]3CC[C@H]([S+]([O-])CC(=O)OCc4ccccc4)[C@H](OC)C3)[C@H](C)[C@@H](O)CC1=O)[C@H](C)C[C@@H]2OC (single isomer, unassigned) [Example 54] | 8.7
2 | CC[C@@H]1/C=C(\C)C[C@H](C)C[C@H](OC)[C@H]2O[C@@](O)(C(=O)C(=O)N3CCCC[C@H]3C(=O)O[C@H](/C(C)=C/[C@@H]3CC[C@H]([S+]([O-])CCC(=O)OCc4ccccc4)[C@H](OC)C3)[C@H](C)[C@@H](O)CC1=O)[C@H](C)C[C@@H]2OC (single isomer, unassigned) [Example 62] | 29.2
3 | CC[C@@H]1/C=C(\C)C[C@H](C)C[C@H](OC)[C@H]2O[C@@](O)(C(=O)C(=O)N3CCCC[C@H]3C(=O)O[C@H](/C(C)=C/[C@@H]3CC[C@H]([S+]([O-])CCC(=O)OC(C)C)[C@H](OC)C3)[C@H](C)[C@@H](O)CC1=O)[C@H](C)C[C@@H]2OC (single isomer, unassigned) [Example 65] | 32
4 | CCC(CC)OC(=O)CC[S+]([O-])[C@H]1CC[C@@H](/C=C(\C)[C@H]2OC(=O)[C@@H]3CCCCN3C(=O)C(=O)[C@]3(O)O[C@H]([C@@H](OC)C[C@@H](C)C/C(C)=C/[C@@H](CC)C(=O)C[C@H](O)[C@H]2C)[C@@H](OC)C[C@H]3C)C[C@H]1OC (single isomer, unassigned) [Example 67] | 25.6
5 | CC[C@@H]1/C=C(\C)C[C@H](C)C[C@H](OC)[C@H]2O[C@@](O)(C(=O)C(=O)N3CCCC[C@H]3C(=O)O[C@H](/C(C)=C/[C@@H]3CC[C@H]([S+]([O-])CCC(=O)N(C)O)[C@H](OC)C3)[C@H](C)[C@@H](O)CC1=O)[C@H](C)C[C@@H]2OC (single isomer, unassigned) [Example 69] | 6.24
6 | CC[C@@H]1/C=C(\C)C[C@H](C)C[C@H](OC)[C@H]2O[C@@](O)(C(=O)C(=O)N3CCCC[C@H]3C(=O)O[C@H](/C(C)=C/[C@@H]3CC[C@H]([S+]([O-])CC(=O)O)[C@H](OC)C3)[C@H](C)[C@@H](O)CC1=O)[C@H](C)C[C@@H]2OC (single isomer, unassigned) [Example 73] | 9.6
7 | CC[C@@H]1/C=C(\C)C[C@H](C)C[C@H](OC)[C@H]2O[C@@](O)(C(=O)C(=O)N3CCCC[C@H]3C(=O)O[C@H](/C(C)=C/[C@@H]3CC[C@H](SC(=O)C(C)NC(C)=O)[C@H](OC)C3)[C@H](C)[C@@H](O)CC1=O)[C@H](C)C[C@@H]2OC (single isomer, unassigned) [Example 117A] | 2.4
8 | CCC1C=C(C)CC(C)CC(OC)C2OC(O)(C(=O)C(=O)N3CCCCC3C(=O)OC(C(C)=CC3CCC(SC(C)=O)C(OC)C3)C(C)C(O)CC1=O)C(C)CC2OC (stereo not shown) [Example 2] | 0.16
9 | CCC1C=C(C)CC(C)CC(OC)C2OC(O)(C(=O)C(=O)N3CCCCC3C(=O)OC(C(C)=CC3CCC(S)C(OC)C3)C(C)C(O)CC1=O)C(C)CC2OC (stereo not drawn) [Example 8A, 32-epi-Thiol Ascomycin] | 0.75
10 | CCC1C=C(C)CC(C)CC(OC)C2OC(O)(C(=O)C(=O)N3CCCCC3C(=O)OC(C(C)=CC3CCC(SCCC(=O)Oc4ccccc4)C(OC)C3)C(C)C(O)CC1=O)C(C)CC2OC (stereo not shown) [Example 8] | 1.8
11 | CCC1C=C(C)CC(C)CC(OC)C2OC(O)(C(=O)C(=O)N3CCCCC3C(=O)OC(C(C)=CC3CCC(SCCC(=O)OC)C(OC)C3)C(C)C(O)CC1=O)C(C)CC2OC (stereo not shown) [Example 9] | 8.9
12 | CCOC(=O)CCSC1CCC(C=C(C)C2OC(=O)C3CCCCN3C(=O)C(=O)C3(O)OC(C(OC)CC(C)CC(C)=CC(CC)C(=O)CC(O)C2C)C(OC)CC3C)CC1OC (stereo not shown) [Example 10] | 3.2
13 | CCC1C=C(C)CC(C)CC(OC)C2OC(O)(C(=O)C(=O)N3CCCCC3C(=O)OC(C(C)=CC3CCC(SCCC(=O)OCCOC)C(OC)C3)C(C)C(O)CC1=O)C(C)CC2OC (stereo not shown) [Example 11] | 2.1
14 | CCC1C=C(C)CC(C)CC(OC)C2OC(O)(C(=O)C(=O)N3CCCCC3C(=O)OC(C(C)=CC3CCC(SCCC(=O)OCC(F)(F)F)C(OC)C3)C(C)C(O)CC1=O)C(C)CC2OC (stereo not shown) [Example 12] | 1.7
15 | CCC1C=C(C)CC(C)CC(OC)C2OC(O)(C(=O)C(=O)N3CCCCC3C(=O)OC(C(C)=CC3CCC(SCCC(=O)OCCO)C(OC)C3)C(C)C(O)CC1=O)C(C)CC2OC (stereo not shown) [Example 13] | 3.1
16 | CCC1C=C(C)CC(C)CC(OC)C2OC(O)(C(=O)C(=O)N3CCCCC3C(=O)OC(C(C)=CC3CCC(SCCC(=O)OC4CCCCC4)C(OC)C3)C(C)C(O)CC1=O)C(C)CC2OC (stereo not shown) [Example 14] | 6.2
17 | CCC1C=C(C)CC(C)CC(OC)C2OC(O)(C(=O)C(=O)N3CCCCC3C(=O)OC(C(C)=CC3CCC(SCCC(=O)OC(C)(C)C)C(OC)C3)C(C)C(O)CC1=O)C(C)CC2OC (stereo not shown) [Example 15] | 1.5
18 | CCC1C=C(C)CC(C)CC(OC)C2OC(O)(C(=O)C(=O)N3CCCCC3C(=O)OC(C(C)=CC3CCC(SCCC(=O)OCCN(C)C)C(OC)C3)C(C)C(O)CC1=O)C(C)CC2OC (stereo not shown) [Example 16] | 2.2
19 | CCC1C=C(C)CC(C)CC(OC)C2OC(O)(C(=O)C(=O)N3CCCCC3C(=O)OC(C(C)=CC3CCC(SCCC(=O)OCCCS(=O)(=O)O)C(OC)C3)C(C)C(O)CC1=O)C(C)CC2OC (stereo not shown) [Example 17] | 31.2
20 | CCC1C=C(C)CC(C)CC(OC)C2OC(O)(C(=O)C(=O)N3CCCCC3C(=O)OC(C(C)=CC3CCC(SCCC(=O)O)C(OC)C3)C(C)C(O)CC1=O)C(C)CC2OC (stereo not shown) [Example 19] | 2.9

Row | Structure (SMILES) | IC50 [nM]
21 | CCC1C=C(C)CC(C)CC(OC)C2OC(O)(C(=O)C(=O)N3CCCCC3C(=O)OC(C(C)=CC3CCC(SCCC(=O)OC(C)C)C(OC)C3)C(C)C(O)CC1=O)C(C)CC2OC (stereo not shown) [Example 20] | 12.7
22 | CCC(CC)OC(=O)CCSC1CCC(C=C(C)C2OC(=O)C3CCCCN3C(=O)C(=O)C3(O)OC(C(OC)CC(C)CC(C)=CC(CC)C(=O)CC(O)C2C)C(OC)CC3C)CC1OC (stereo not shown) [Example 21] | 5.4
23 | CCC1C=C(C)CC(C)CC(OC)C2OC(O)(C(=O)C(=O)N3CCCCC3C(=O)OC(C(C)=CC3CCC(SCCC(N)=O)C(OC)C3)C(C)C(O)CC1=O)C(C)CC2OC (stereo not shown) [Example 22] | 0.02
24 | CCC1C=C(C)CC(C)CC(OC)C2OC(O)(C(=O)C(=O)N3CCCCC3C(=O)OC(C(C)=CC3CCC(SCCC(=O)N4CCOCC4)C(OC)C3)C(C)C(O)CC1=O)C(C)CC2OC (stereo not shown) [Example 23] | 0.04
25 | CCC1C=C(C)CC(C)CC(OC)C2OC(O)(C(=O)C(=O)N3CCCCC3C(=O)OC(C(C)=CC3CCC(SCCC(=O)NO)C(OC)C3)C(C)C(O)CC1=O)C(C)CC2OC (stereo not shown) [Example 24] | 0.8
26 | CCC1C=C(C)CC(C)CC(OC)C2OC(O)(C(=O)C(=O)N3CCCCC3C(=O)OC(C(C)=CC3CCC(SCCC(=O)N(C)O)C(OC)C3)C(C)C(O)CC1=O)C(C)CC2OC (stereo not shown) [Example 25] | 0.2
27 | CCC1C=C(C)CC(C)CC(OC)C2OC(O)(C(=O)C(=O)N3CCCCC3C(=O)OC(C(C)=CC3CCC(SCCC(=O)N(O)C(C)C)C(OC)C3)C(C)C(O)CC1=O)C(C)CC2OC (stereo not shown) [Example 26] | 7
28 | CCC1C=C(C)CC(C)CC(OC)C2OC(O)(C(=O)C(=O)N3CCCCC3C(=O)OC(C(C)=CC3CCC(SCC(=O)OCc4ccccc4)C(OC)C3)C(C)C(O)CC1=O)C(C)CC2OC (stereo not shown) [Example 27] | 3.7
29 | CCC1C=C(C)CC(C)CC(OC)C2OC(O)(C(=O)C(=O)N3CCCCC3C(=O)OC(C(C)=CC3CCC(SCC(=O)OC)C(OC)C3)C(C)C(O)CC1=O)C(C)CC2OC (stereo not shown) [Example 28] | 1.6
30 | CCC1C=C(C)CC(C)CC(OC)C2OC(O)(C(=O)C(=O)N3CCCCC3C(=O)OC(C(C)=CC3CCC(SCC(=O)OC(C)(C)C)C(OC)C3)C(C)C(O)CC1=O)C(C)CC2OC (stereo not shown) [Example 29] | 1.8
31 | CCC1C=C(C)CC(C)CC(OC)C2OC(O)(C(=O)C(=O)N3CCCCC3C(=O)OC(C(C)=CC3CCC(SCC(=O)O)C(OC)C3)C(C)C(O)CC1=O)C(C)CC2OC (stereo not shown) [Example 30] | 9.1
32 | CCOC(=O)CSC1CCC(C=C(C)C2OC(=O)C3CCCCN3C(=O)C(=O)C3(O)OC(C(OC)CC(C)CC(C)=CC(CC)C(=O)CC(O)C2C)C(OC)CC3C)CC1OC (stereo not shown) [Example 31] | 8.2
33 | CCC1C=C(C)CC(C)CC(OC)C2OC(O)(C(=O)C(=O)N3CCCCC3C(=O)OC(C(C)=CC3CCC(SCC(=O)OC(C)C)C(OC)C3)C(C)C(O)CC1=O)C(C)CC2OC (stereo not shown) [Example 32] | 6.5
34 | CCC1C=C(C)CC(C)CC(OC)C2OC(O)(C(=O)C(=O)N3CCCCC3C(=O)OC(C(C)=CC3CCC(SCC(=O)OCC(F)(F)F)C(OC)C3)C(C)C(O)CC1=O)C(C)CC2OC (stereo not shown) [Example 33] | 47
35 | CCC1C=C(C)CC(C)CC(OC)C2OC(O)(C(=O)C(=O)N3CCCCC3C(=O)OC(C(C)=CC3CCC(SCC(=O)OCCO)C(OC)C3)C(C)C(O)CC1=O)C(C)CC2OC (stereo not shown) [Example 34] | 60.8
36 | CCC1C=C(C)CC(C)CC(OC)C2OC(O)(C(=O)C(=O)N3CCCCC3C(=O)OC(C(C)=CC3CCC(SCC(=O)OCCOC)C(OC)C3)C(C)C(O)CC1=O)C(C)CC2OC (stereo not shown) [Example 35] | 27.1
37 | CCC1C=C(C)CC(C)CC(OC)C2OC(O)(C(=O)C(=O)N3CCCCC3C(=O)OC(C(C)=CC3CCC(SCC(=O)OCCN(C)C)C(OC)C3)C(C)C(O)CC1=O)C(C)CC2OC (stereo not shown) [Example 36] | 24.2
38 | CCC1C=C(C)CC(C)CC(OC)C2OC(O)(C(=O)C(=O)N3CCCCC3C(=O)OC(C(C)=CC3CCC(SCC(=O)OCCOCc4ccccc4)C(OC)C3)C(C)C(O)CC1=O)C(C)CC2OC (stereo not shown) [Example 37] | 16.4
39 | CCC1C=C(C)CC(C)CC(OC)C2OC(O)(C(=O)C(=O)N3CCCCC3C(=O)OC(C(C)=CC3CCC(SCC(=O)NO)C(OC)C3)C(C)C(O)CC1=O)C(C)CC2OC (stereo not shown) [Example 38] | 7.5

Same assay, conditions: serum-free medium AIM V, Table 3

Row | Structure (SMILES) | IC50 [nM]
40 | CC[C@@H]1/C=C(\C)C[C@H](C)C[C@H](OC)[C@H]2O[C@@](O)(C(=O)C(=O)N3CCCC[C@H]3C(=O)O[C@H](/C(C)=C/[C@@H]3CC[C@H](SC(=O)C(C)NC(C)=O)[C@H](OC)C3)[C@H](C)[C@@H](O)CC1=O)[C@H](C)C[C@@H]2OC (single isomer, unassigned) [Example 117B] | 2.5
